From ChEMBL document CHEMBL1255325, “Plasmid-mediated qepA gene among Escherichia coli clinical isolates from Japan” (2008)
Values after ≈ are worked out from the molar mass of the structure shown.

Key:
Escherichia coli [1] = experiment: Antimicrobial activity against Escherichia coli DH10B harboring p041060 carrying qepA gene by agar dilution CLSI method; type: functional
Escherichia coli [2] = experiment: Ratio of MIC for Escherichia coli DH10B harboring p041060 carrying qepA gene to MIC for Escherichia coli isolate DH10B; type: functional
Escherichia coli [3] = experiment: Antimicrobial activity against Escherichia coli DH10B harboring p05283 carrying qepA and rmtB gene by agar dilution CLSI method; type: functional
Escherichia coli [4] = experiment: Antimicrobial activity against Escherichia coli isolate DH10B by agar dilution CLSI method
Escherichia coli [5] = experiment: Antimicrobial activity against Escherichia coli MRY04-1060 expressing qepA gene by agar dilution CLSI method; type: functional
Escherichia coli [6] = experiment: Ratio of MIC for Escherichia coli DH10B harboring p05283 carrying qepA and rmtB gene to MIC for Escherichia coli isolate DH10B; type: functional
Escherichia coli [7] = experiment: Antimicrobial activity against Escherichia coli MRY05-3283 expressing qepA and rmtB gene by agar dilution CLSI method; type: functional

Compound	MIC (Escherichia coli [1]) [µg/mL]	Ratio (Escherichia coli [2])	MIC (Escherichia coli [3]) [µg/mL]	MIC (Escherichia coli [4]) [µg/mL]	MIC (Escherichia coli [5]) [µg/mL]	Ratio (Escherichia coli [6])	MIC (Escherichia coli [7]) [µg/mL]
CCn1cc(C(=O)O)c(=O)c2cc(F)c(N3CCNCC3)cc21 [NORFLOXACIN]	0.25 (≈ 0.783 µM)	4	0.25 (≈ 0.783 µM)	≤ 0.008	> 128	4	> 128
C[C@@H](O)[C@H]1C(=O)N2C(C(=O)O)=C(SCCNC=N)C[C@H]12 [IMIPENEM ANHYDROUS]	–	–	–	0.25 (≈ 0.835 µM)	0.13 (≈ 0.434 µM)	–	0.13 (≈ 0.434 µM)
CO/N=C(\C(=O)N[C@@H]1C(=O)N2C(C(=O)O)=C(COC(C)=O)CS[C@H]12)c1csc(N)n1 [CEFOTAXIME]	0.06 (≈ 0.132 µM)	–	0.06 (≈ 0.132 µM)	0.06 (≈ 0.132 µM)	0.13 (≈ 0.285 µM)	–	0.13 (≈ 0.285 µM)
CC(C)(O/N=C(\C(=O)N[C@@H]1C(=O)N2C(C(=O)[O-])=C(C[n+]3ccccc3)CS[C@H]12)c1csc(N)n1)C(=O)O [CEFTAZIDIME]	0.5 (≈ 0.915 µM)	–	0.5 (≈ 0.915 µM)	0.25 (≈ 0.457 µM)	0.5 (≈ 0.915 µM)	–	0.5 (≈ 0.915 µM)
NCC[C@H](O)C(=O)N[C@@H]1C[C@H](N)[C@@H](O[C@H]2O[C@H](CN)[C@@H](O)[C@H](O)[C@H]2O)[C@H](O)[C@H]1O[C@H]1O[C@H](CO)[C@@H](O)[C@H](N)[C@H]1O [AMIKACIN]	> 128	–	> 128	2 (≈ 3.42 µM)	> 128	–	> 128
NC[C@H]1O[C@H](O[C@H]2[C@H](O)[C@@H](O[C@H]3O[C@H](CO)[C@@H](O)[C@H](N)[C@H]3O)[C@H](N)C[C@@H]2N)[C@H](N)C[C@@H]1O [TOBRAMYCIN]	> 128	–	> 128	0.5 (≈ 1.07 µM)	> 128	–	> 128
GENTAMICIN	> 128	–	> 128	–	> 128	–	> 128
C[C@H]1COc2c(N3CCN(C)CC3)c(F)cc3c(=O)c(C(=O)O)cn1c23.C[C@H]1COc2c(N3CCN(C)CC3)c(F)cc3c(=O)c(C(=O)O)cn1c23.O [LEVOFLOXACIN]	–	–	–	≤ 0.008	64	–	128
